This note sets out measurements from ChEMBL document CHEMBL4177523, “Ser422 phosphorylation blocks human Tau cleavage by caspase-3: Biochemical implications to Alzheimer's Disease” (Bioorg Med Chem Lett, 2017).

The source made the active and inactive calls. The rule behind the calls is not given here. Square brackets hold non-standard residues; d marks the D form. Peptide text beside a SMILES is read from it. ξ: configuration not given here. ξpS = NC(COP(=O)(O)O)C(=O)O

The nature of data set [1]: Retention time of the compound by mass spectrometric analysis. The class given is physicochemical.
Data set [2] deals with T1, Caspase-3 (Homo sapiens) (UniProt P42574).
T1 sequence (whole entry): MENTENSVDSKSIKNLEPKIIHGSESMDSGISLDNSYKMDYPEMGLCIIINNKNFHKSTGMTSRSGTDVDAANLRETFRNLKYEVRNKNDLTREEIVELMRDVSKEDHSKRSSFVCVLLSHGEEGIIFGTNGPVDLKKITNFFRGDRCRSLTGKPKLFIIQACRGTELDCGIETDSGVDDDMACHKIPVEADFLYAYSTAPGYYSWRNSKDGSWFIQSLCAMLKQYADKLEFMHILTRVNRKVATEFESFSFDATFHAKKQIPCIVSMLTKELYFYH
The data set can be described thus: Substrate activity at recombinant human caspase-3 assessed as enzyme-mediated compound cleavage after 1 hr by RP-HPLC analysis.

Data set [3] has as its target T1, Caspase-3 (Homo sapiens). The data set can be described thus: Substrate activity at recombinant human caspase-3 assessed as SPQLAT-CONH2 formation after 1 hr by RP-HPLC analysis.
Data set [4] addresses T1, Caspase-3 (Homo sapiens). The data set can be described thus: Substrate activity at recombinant human caspase-3 assessed as SPQLAT-CONH2 formation after 1 hr by MALDI-TOF/MS analysis.
Data set [5] deals with T1, Caspase-3 (Homo sapiens). The data set can be described thus: Substrate activity at recombinant human caspase-3 assessed as SIDMVD formation after 1 hr by RP-HPLC analysis.
Data set [6] has as its target T1, Caspase-3 (Homo sapiens). The data set can be described thus: Substrate activity at recombinant human caspase-3 assessed as SIDMVD formation after 1 hr by MALDI-TOF/MS analysis.
In data set [7] the target is T1, Caspase-3 (Homo sapiens). The data set can be described thus: Substrate activity at 3-fold excess recombinant human caspase-3 assessed as SIDMVD formation by RP-HPLC analysis. Conditions: TDE = time-dependent effect.
For data set [8], the target named is T1, Caspase-3 (Homo sapiens). The data set can be described thus: Substrate activity at 3-fold excess recombinant human caspase-3 assessed as SPQLAT formation by RP-HPLC analysis. The note with it: TDE = time-dependent effect.
For data set [9], the target named is T1, Caspase-3 (Homo sapiens). The data set can be described thus: Substrate activity at recombinant human caspase-3 assessed as enzyme-mediated compound cleavage after 1 hr in presence of casapase-3 inhibitor Ac-DQVD-aldehyde by RP-HPLC analysis.
Data set [10] deals with T1, Caspase-3 (Homo sapiens). The data set can be described thus: Substrate activity at recombinant human caspase-3 assessed as Ac-STGSIDMVD-OH formation after 1 hr by RP-HPLC analysis.
In data set [11] the target is T1, Caspase-3 (Homo sapiens). The data set can be described thus: Substrate activity at recombinant human caspase-3 assessed as Ac-STGSIDMVD-OH formation after 1 hr by MALDI-TOF/MS analysis.
Data set [12] deals with T1, Caspase-3 (Homo sapiens). The data set can be described thus: Substrate activity at recombinant human caspase-3 assessed as SPQL-CONH2 formation after 1 hr by RP-HPLC analysis.
In data set [13] the target is T1, Caspase-3 (Homo sapiens). The data set can be described thus: Inhibition of recombinant human caspase-3 at 50 uM using fluorogenic peptide substrate Ac-DEVD-MCA after 30 mins incubation by spectrofluorometric method.

For the molecule `CC(C)C[C@H](NC(=O)[C@H](CCC(N)=O)NC(=O)[C@@H]1CCCN1C(=O)[C@@H](N)CO)C(=O)N[C@@H](C)C(=O)N[C@H](C(N)=O)[C@@H](C)O` (H-SPQLAT-NH2), the Retention_time in data set [1] was determined as 25.7 min.
As for `CC[C@H](C)[C@H](NC(=O)[C@H](CO)NC(=O)CNC(=O)[C@@H](NC(=O)[C@H](CO)NC(C)=O)[C@@H](C)O)C(=O)N[C@@H](CC(=O)O)C(=O)N[C@@H](CCSC)C(=O)N[C@H](C(=O)N[C@H](CC(=O)O)C(=O)N[C@@H](CO)C(=O)N1CCC[C@H]1C(=O)N[C@@H](CCC(N)=O)C(=O)N[C@@H](CC(C)C)C(=O)N[C@@H](C)C(N)=O)C(C)C`, the result at Caspase-3 (Homo sapiens) [2] was inactive.
Consider `CC[C@H](C)[C@H](NC(=O)[C@H](CO)NC(=O)CNC(=O)[C@@H](NC(=O)[C@H](CO)NC(C)=O)[C@@H](C)O)C(=O)N[C@@H](CC(=O)O)C(=O)N[C@@H](CCSC)C(=O)N[C@H](C(=O)N[C@@H](CC(=O)O)C(=O)N[C@H](CO)C(=O)N1CCC[C@H]1C(=O)N[C@@H](CCC(N)=O)C(=O)N[C@@H](CC(C)C)C(=O)N[C@@H](C)C(N)=O)C(C)C`, for which, on Caspase-3 (Homo sapiens) [2], the result was Active.
For `CC[C@H](C)[C@H](NC(=O)[C@@H](N)CO)C(=O)N[C@@H](CC(=O)O)C(=O)N[C@@H](CCSC)C(=O)N[C@H](C(=O)N[C@@H](CC(=O)O)C(=O)N[C@@H](CO)C(=O)N1CCC[C@H]1C(=O)N[C@@H](CCC(N)=O)C(=O)N[C@@H](CC(C)C)C(=O)N[C@@H](C)C(=O)N[C@H](C(N)=O)[C@@H](C)O)C(C)C` (H-SIDMVDSPQLAT-NH2), the result on Caspase-3 (Homo sapiens) [3], on Caspase-3 (Homo sapiens) [4], on Caspase-3 (Homo sapiens) [5] and at Caspase-3 (Homo sapiens) [6] was Active. In data set [1], this molecule showed a Retention_time of 27.9 min. Further, the Activity result at Caspase-3 (Homo sapiens) [7] and at Caspase-3 (Homo sapiens) [8] was “Tde” in each case. In addition, the result on Caspase-3 (Homo sapiens) [9] was inactive.
With `CC[C@H](C)[C@H](NC(=O)[C@@H](N)CO)C(=O)N[C@@H](CC(=O)O)C(=O)N[C@@H](CCSC)C(=O)N[C@H](C(=O)N[C@@H](CC(=O)O)C(=O)NC(COP(=O)(O)O)C(=O)N1CCC[C@H]1C(=O)N[C@@H](CCC(N)=O)C(=O)N[C@@H](CC(C)C)C(=O)N[C@@H](C)C(=O)N[C@H](C(N)=O)[C@@H](C)O)C(C)C` (some centres not stated) (H-SIDMVD[ξpS]PQLAT-NH2), in data set [1], the Retention_time was 26.3 min. Further, the outcome at Caspase-3 (Homo sapiens) [2] was inactive.
As for `CC[C@H](C)[C@H](NC(=O)[C@H](CO)NC(=O)CNC(=O)[C@@H](NC(=O)[C@H](CO)NC(C)=O)[C@@H](C)O)C(=O)N[C@@H](CC(=O)O)C(=O)N[C@@H](CCSC)C(=O)N[C@H](C(=O)N[C@@H](CC(=O)O)C(=O)N[C@@H](CO)C(=O)N1CCC[C@H]1C(=O)N[C@@H](CCC(N)=O)C(=O)N[C@@H](CC(C)C)C(N)=O)C(C)C` (Ac-STGSIDMVDSPQL-NH2), the outcome on Caspase-3 (Homo sapiens) [10], on Caspase-3 (Homo sapiens) [11] and on Caspase-3 (Homo sapiens) [12] was Active. The molecule further came in with a Retention_time in [1] of 31.8 min.
`CC[C@H](C)[C@H](NC(=O)[C@@H](N)CO)C(=O)N[C@@H](CC(=O)O)C(=O)N[C@@H](CCSC)C(=O)N[C@H](C(=O)N[C@@H](CC(=O)O)C(=O)O)C(C)C` (H-SIDMVD-OH) returned a Retention_time in [1] of 18.1 min.
On the same count and under the same terms, under `CC[C@H](C)[C@H](NC(=O)[C@H](CO)NC(=O)CNC(=O)[C@@H](NC(=O)[C@H](CO)NC(C)=O)[C@@H](C)O)C(=O)N[C@@H](CC(=O)O)C(=O)N[C@@H](CCSC)C(=O)N[C@H](C(=O)N[C@@H](CC(=O)O)C(=O)O)C(C)C` (Ac-STGSIDMVD-OH) stands 30.6 min.
Take `CC[C@H](C)[C@H](NC(=O)[C@H](CO)NC(=O)CNC(=O)[C@@H](NC(=O)[C@H](CO)NC(C)=O)[C@@H](C)O)C(=O)N[C@@H](CC(=O)O)C(=O)N[C@@H](CCSC)C(=O)N[C@H](C(=O)N[C@@H](CC(=O)O)C(=O)NC(COP(=O)(O)O)C(=O)N1CCC[C@H]1C(=O)N[C@@H](CCC(N)=O)C(=O)N[C@@H](CC(C)C)C(=O)N[C@@H](C)C(N)=O)C(C)C` (some centres not stated) (Ac-STGSIDMVD[ξpS]PQLA-NH2): the result on Caspase-3 (Homo sapiens) [2] was inactive.
In the case of `CC(C)C[C@H](NC(=O)[C@H](CCC(N)=O)NC(=O)[C@@H]1CCCN1C(=O)[C@@H](N)CO)C(N)=O` (H-SPQL-NH2), the Retention_time in data set [1] was 19.5 min.
Broadly, the inhibition is the share of the control response that was lost under treatment. Consider `CC(=O)N[C@@H](CC(=O)O)C(=O)N[C@@H](CCC(N)=O)C(=O)N[C@H](C(=O)N[C@H](C=O)CC(=O)O)C(C)C` (Ac-DQVD-aldehyde), for which the inhibition on Caspase-3 (Homo sapiens) [13] came to 97.3%.
